Measurements as given in ChEMBL document CHEMBL4765293, “Specific stabilization of promoter G-Quadruplex DNA by 2,6-disubstituted amidoanthracene-9,10-dione based dimeric distamycin analogues and their selective cancer cell cytotoxicity” (Eur J Med Chem, 2020).
Activity calls are given as the source filed them. The rule behind the calls is not given here.

Experiments:
Quadruplex DNA [1] = experiment: Binding affinity to c-MYC G4 quadruplex DNA (unknown orgin) by cyclic voltammetry; type: nucleic-acid assay
Quadruplex DNA [2] = experiment: Binding affinity to c-Myc G4-quadruplex DNA (unknown origin) by UV- vis spectrophotometric analysis; type: nucleic-acid assay
Quadruplex DNA [3] = experiment: Binding affinity to human c-KIT1 G4-quadruplex DNA (unknown origin) by UV- vis spectrophotometric analysis; type: nucleic-acid assay
Quadruplex DNA [4] = experiment: Binding affinity to c-KIT2 G4-quadruplex DNA (unknown origin) by UV- vis spectrophotometric analysis; type: nucleic-acid assay
Quadruplex DNA [5] = experiment: Binding affinity to Human telomeric H21 G4 quadruplex DNA (unknown origin) in presence of KCl by UV- vis spectrophotometric analysis; type: nucleic-acid assay
Quadruplex DNA [6] = experiment: Binding affinity to human telomeric H21 G4 quadruplex DNA in presence of NaCl by UV- vis spectrophotometric analysis; type: nucleic-acid assay
Calf thymus DNA [7] = experiment: Binding affinity to calf thymus duplex DNA by UV- vis spectrophotometric analysis; type: nucleic-acid assay; conditions: Bos taurus
[8] = Binding affinity to c-MYC ds DNA (unknown orgin) by UV- vis spectrophotometric analysis
[9] = Selectivity index, binding affinity to c-MYC G4 quadruplex DNA (unknown origin) to binding affinity c-MYC ds DNA (unknown origin)
Quadruplex DNA [10] = experiment: Binding affinity to c-MYC G4 quadruplex (unknown origin) assessed as increase in fluorescence intensity at 0.2 uM by fluorescence spectroscopic analysis; type: nucleic-acid assay
Quadruplex DNA [11] = experiment: Binding affinity to c-MYC G4-quadruplex DNA (unknown origin) assessed as fluorescence life time by fluorescence spectroscopic analysis relative to compound alone group; type: nucleic-acid assay
Quadruplex DNA [12] = experiment: Binding affinity to c-MYC G4-quadruplex DNA (unknown orgin) assessed as slight change in ellipticity of the CD signatures and topology by circular dichroism spectroscopy; type: nucleic-acid assay
Quadruplex DNA [13] = experiment: Binding affinity to human telomeric H21 G4-quadruplex DNA assessed as slight change in ellipticity of the CD signatures and topology in presence KCl of by circular dichroism spectroscopy; type: nucleic-acid assay
Quadruplex DNA [14] = experiment: Binding affinity to human telomeric H21 G4-quadruplex DNA assessed as slight change in ellipticity of the CD signatures and topology in presence NaCl of by circular dichroism spectroscopy; type: nucleic-acid assay
Calf thymus DNA [15] = experiment: Binding affinity to calf thymus duplex DNA assessed as slight change in ellipticity of the CD signatures and topology by circular dichroism spectroscopy; type: nucleic-acid assay; conditions: Bos taurus
Homo sapiens = species: Homo sapiens; experiment: Binding affinity to c-MYC ds DNA (unknown origin) assessed as slight change in ellipticity of the CD signatures and topology by circular dichroism spectroscopy
Quadruplex DNA [16] = experiment: Binding affinity to c-MYC G4-quadruplex DNA (unknown orgin) assessed increase in melting temperature measured after 12 hrs by thermal denaturation based spectrophotometric analysis; type: nucleic-acid assay
Quadruplex DNA [17] = experiment: Binding affinity to c-KIT1 G4-quadruplex DNA (unknown orgin) assessed increase in melting temperature measured after 12 hrs by thermal denaturation based spectrophotometric analysis; type: nucleic-acid assay
Quadruplex DNA [18] = experiment: Binding affinity to c-KIT2 G4-quadruplex DNA (unknown orgin) assessed increase in melting temperature measured after 12 hrs by thermal denaturation based spectrophotometric analysis; type: nucleic-acid assay
Quadruplex DNA [19] = experiment: Binding affinity to c-MYC G4-quadruplex DNA (unknown orgin) at 100 uM by ethidium bromide displacement assay; type: nucleic-acid assay
Quadruplex DNA [20] = experiment: Induction of stabilization of c-MYC G-quadruplex DNA template sequence (unknown orgin) assessed as inhibition of Taq polymerase mediated DNA polymerization at high concentration in presence K+ measured after 30 mins by Taq DNA polymerase stop assay; type: nucleic-acid assay
NIH3T3 = experiment: Cytotoxicity against mouse NIH3T3 cells assessed as cell viability incubated for 72 hr by MTT assay; type: cell-based; conditions: NIH3T3, 72 h
[21] = Cytotoxicity against human HDFa cells assessed as cell viability incubated for 72 hr by MTT assay; type: cell-based
HEK-293T = experiment: Cytotoxicity against human HEK293T cells assessed as cell viability incubated for 72 hr by MTT assay; type: functional, cell-based
HeLa [22] = experiment: Cytotoxicity against human HeLa cells assessed as cell viability incubated for 72 hr by MTT assay; type: functional, cell-based
HeLa [23] = experiment: Induction of apoptotic cell death in human HeLa cells assessed as change in nuclear morphology at 3 to 5 uM after 12 hrs by acridine orange/ethidium bromide staining based fluorescence microscopy; type: functional; conditions: dose 3-5 µM
HeLa [24] = experiment: Induction of apoptosis in human HeLa cells assessed as nuclear condensation and fragmentation at 5 uM measured after 24 hrs by DAPI staining based confocal laser scanning microscopy analysis; type: functional, cell-based
Quadruplex DNA [25] = experiment: Binding affinity to c-KIT1 G4 quadruplex (unknown origin) assessed as increase in fluorescence intensity at 0.2 uM by fluorescence spectroscopic analysis; type: nucleic-acid assay
Quadruplex DNA [26] = experiment: Binding affinity to c-KIT2 G4 quadruplex (unknown origin) assessed as increase in fluorescence intensity at 0.2 uM by fluorescence spectroscopic analysis; type: nucleic-acid assay
Quadruplex DNA [27] = experiment: Binding affinity to human telomeric H21 G4 quadruplex DNA in presence of KCl assessed as increase in fluorescence intensity at 0.2 uM by fluorescence spectroscopic analysis; type: nucleic-acid assay
Quadruplex DNA [28] = experiment: Binding affinity to human telomeric H21 G4 quadruplex DNA in presence of NaCl assessed as increase in fluorescence intensity at 0.2 uM by fluorescence spectroscopic analysis; type: nucleic-acid assay
HeLa [29] = experiment: Induction of apoptotic cell death in human HeLa cells assessed as change in nuclear morphology at 5 to 7 uM after 12 hrs by acridine orange/ethidium bromide staining based fluorescence microscopy; type: functional; conditions: dose 5-7 µM
HeLa [30] = experiment: Induction of apoptosis in human HeLa cells assessed as nuclear condensation and fragmentation at 7 uM measured after 24 hrs by DAPI staining based confocal laser scanning microscopy analysis; type: functional, cell-based
HeLa [31] = experiment: Induction of apoptosis in human HeLa cells at 100 uM after 24 to 48 hrs by annexin V/PI- staining based flow cytometric analysis; type: functional, cell-based; conditions: time 24-48 hrs
HeLa [32] = experiment: Induction of apoptosis in human HeLa cells at 7 uM after 24 to 48 hrs by annexin V/PI- staining based flow cytometric analysis; type: functional, cell-based
HeLa [33] = experiment: Induction of apoptosis in human HeLa cells at 5 uM after 24 to 48 hrs by annexin V/PI- staining based flow cytometric analysis; type: functional, cell-based
HeLa [34] = experiment: Induction of apoptotic cell death in human HeLa cells assessed as morphological changes from the spindle-shaped cells to round-shaped at 50 to 200 uM measured after 24 hrs by acridine orange/ethidium bromide staining based fluorescence microscopy; type: functional; conditions: dose 50-200 µM
HeLa [35] = experiment: Induction of apoptotic cell death in human HeLa cells assessed as morphological changes from the spindle-shaped cells to round-shaped at 2 to 10 uM measured after 24 hrs by acridine orange/ethidium bromide staining based fluorescence microscopy; type: functional

Ka (Quadruplex DNA [2]) | Ka (Quadruplex DNA [3]) | Ka (Quadruplex DNA [4]) | Ka (Quadruplex DNA [5]) | Ka (Quadruplex DNA [6]) | Ka (Calf thymus DNA [7]) | Ka [8] | Selectivity Index [9] | Activity (Quadruplex DNA [10]) | Time (Quadruplex DNA [11]) [nanoseconds] | ΔTm (Quadruplex DNA [16]) [°C] | ΔTm (Quadruplex DNA [17]) [°C] | ΔTm (Quadruplex DNA [18]) [°C] | Activity (Quadruplex DNA [20]) | Activity (Quadruplex DNA [25]) | Activity (Quadruplex DNA [26]) | Activity (Quadruplex DNA [27]) | Activity (Quadruplex DNA [28]) | SMILES | IC50 (NIH3T3) [µM] | IC50 [21] [µM] | further results
3.8 10^6/M | 3.1 10^6/M | 4.1 10^6/M | 1.1 10^6/M | 0.6 10^6/M | 0.01 10^6/M | 0.012 10^6/M | 380 | Active | 0.37 | 11.1 | 9.9 | 6.8 | Active | Active | Active | Active | Active | Cn1cc(NC(=O)c2cc(NC(=O)c3cccn3C)cn2C)cc1C(=O)NCCC[N+](C)(C)CC(=O)Nc1ccc2c(c1)C(=O)c1ccc(NC(=O)C[N+](C)(C)CCCNC(=O)c3cc(NC(=O)c4cc(NC(=O)c5cccn5C)cn4C)cn3C)cc1C2=O | > 100 | > 100 | Activity (Quadruplex DNA [1]): Active; Activity (Quadruplex DNA [12]): Active; Activity (Quadruplex DNA [13]): Active; Activity (Quadruplex DNA [14]): Active; Activity (Calf thymus DNA [15]): Active; Activity (Homo sapiens): Active; Activity (Quadruplex DNA [19]): Active; IC50 (HEK-293T): 15 µM; IC50 (HeLa [22]): 5.3 µM; Activity (HeLa [23]): Active; Activity (HeLa [24]): Active
2.8 10^6/M | 1.3 10^6/M | 1.8 10^6/M | 0.3 10^6/M | 0.6 10^6/M | 0.016 10^6/M | 0.018 10^6/M | 175 | Active | 0.55 | 7.4 | 7.9 | 5.1 | Active | Active | Active | Active | Active | Cn1cc(NC(=O)c2cccn2C)cc1C(=O)NCCC[N+](C)(C)CC(=O)Nc1ccc2c(c1)C(=O)c1ccc(NC(=O)C[N+](C)(C)CCCNC(=O)c3cc(NC(=O)c4cccn4C)cn3C)cc1C2=O | > 100 | > 100 | Activity (Quadruplex DNA [12]): Active; Activity (Quadruplex DNA [13]): Active; Activity (Quadruplex DNA [14]): Active; Activity (Calf thymus DNA [15]): Active; Activity (Homo sapiens): Active; Activity (Quadruplex DNA [19]): Active; IC50 (HEK-293T): 19 µM; IC50 (HeLa [22]): 7.4 µM; Activity (HeLa [29]): Active; Activity (HeLa [30]): Active
0.16 10^6/M | 0.11 10^6/M | 0.09 10^6/M | 0.07 10^6/M | 0.05 10^6/M | 0.06 10^6/M | 0.05 10^6/M | 3.2 | – | – | – | – | – | – | Active | Active | Active | Active | C[N+](C)(C)CC(=O)Nc1ccc2c(c1)C(=O)c1ccc(NC(=O)C[N+](C)(C)C)cc1C2=O | – | – | –

SMILES | Ka (Quadruplex DNA [2]) | Ka (Quadruplex DNA [3]) | Ka (Quadruplex DNA [4]) | Ka (Quadruplex DNA [5]) | Ka (Quadruplex DNA [6]) | Ka (Calf thymus DNA [7]) | Ka [8] | Selectivity Index [9] | Activity (Quadruplex DNA [10]) | Time (Quadruplex DNA [11]) [nanoseconds] | ΔTm (Quadruplex DNA [16]) [°C] | ΔTm (Quadruplex DNA [17]) [°C] | ΔTm (Quadruplex DNA [18]) [°C] | Activity (Quadruplex DNA [20]) | Activity (Quadruplex DNA [25]) | Activity (Quadruplex DNA [26]) | Activity (Quadruplex DNA [27]) | Activity (Quadruplex DNA [28]) | IC50 (NIH3T3) [µM] | IC50 [21] [µM] | further results
Cn1cccc1C(=O)NCCC[N+](C)(C)CC(=O)Nc1ccc2c(c1)C(=O)c1ccc(NC(=O)C[N+](C)(C)CCCNC(=O)c3cccn3C)cc1C2=O.[Cl-].[Cl-] | 1.4 10^6/M | 0.6 10^6/M | 0.8 10^6/M | 0.5 10^6/M | 0.6 10^6/M | 0.02 10^6/M | 0.025 10^6/M | 70 | Active | 0.54 | 3.2 | 4.7 | 1.2 | Active | Active | Active | Active | Active | > 100 | > 100 | IC50 (HEK-293T): 43 µM; IC50 (HeLa [22]): > 100 µM; Activity (HeLa [31]): Active; AC50 (HeLa [32]): Active; AC50 (HeLa [33]): Active; Activity (HeLa [34]): Active; AC50 (HeLa [35]): Active
